Source: US8580751B2, “Esterified α-galactosylceramide” (Riken, priority 2008, dated 2013)

Legend:
NKT cells [1] = settings: series of synthetic analogs of α-galactosylceramide; cited from earlier work
IL-4 = IL-4 content in serum after intraperitoneal administration of synthetic glycolipid to mouse (Cytometric bead array system); format: in vivo; settings: 100 μg/kg body weight intraperitoneally, C57BL/6 mice, 12 hr (compounds 23, 24) or 3, 6, 12 hr (compound 33) after administration
Description: (§1) A 1 mg/mL dimethyl sulfoxide (DMSO) solution was prepared for each of α-GalCer, compound 23 and compound 24. The solutions were diluted with saline (manufactured by Otsuka Pharmaceutical Co., Ltd.) containing 0.5% Tween 20 (Bio-Rad) such that the dose would be 100 μg/kg body weight when 200 μL was intraperitoneally administered to one mouse.
(§2) Each of the prepared solutions (200 μL) of compounds 23 and 24 was intraperitoneally injected to C57BL/6 mice (2 per group). α-GalCer was used as a control substance, and 200 μL of α-GalCer solution prepared to a dose of 100 μg/kg body weight according to a similar method was injected intraperitoneally. A group administered with a medium (200 μL of saline containing 0.5% Tween 20) was taken as a negative control. The blood (80 μL) was taken from the orbital plexus venosus after the lapse of 6, 12 and 24 hr from the administration, and the serum was prepared.
(§3) The content of IFN-γ in the serum after lapse of 6, 12 and 24 hr from the administration was measured by sandwich ELISA (ENDOGEN). In addition, the content of IL-4 in the serum after lapse of 12 hr from the administration was measured by Cytometric bead array system (BD Biosciences), which is one kind of the ELISA method.
(§4) Using α-GalCer and compound 33, and according to a method similar to the above-mentioned Experimental Example 1, the blood (80 μL) was taken from the orbital plexus venosus after the lapse of 3, 6, 12, 24, 36, 48 and 60 hr from the administration, and the serum was prepared.
(§5) The content of IFN-γ in the serum after lapse of 3, 6, 12, 24, 36, 48 and 60 hr from the administration was measured by a method similar to the above-mentioned Experimental Example 1. In addition, the content of IL-4 in the serum after lapse of 3, 6 and 12 hr from the administration was measured by a method similar to the above-mentioned Experimental Example 1.

IFN-γ = IFN-γ content in serum after intraperitoneal administration of synthetic glycolipid to mouse (sandwich ELISA); format: in vivo; settings: 100 μg/kg body weight intraperitoneally, C57BL/6 mice, 6-24 hr (compounds 23, 24) or 3-60 hr (compound 33) after administration
Description: as §1, §2, §3, §4, §5

human NKT cells = settings: human system; cited from earlier work
NKT cells [2] = settings: cited from earlier work

Row | Compound | production of IL-4 as compared to α-GalCer (IL-4) | production of IFN-γ as compared to α-GalCer (IFN-γ) | activity on human NKT cells in vitro (human NKT cells) | further results
1 | CCCCCCCCCCCCCCCCCCCCCCCCCC(=O)N[C@@H](CO[C@H]1OC(CO)[C@H](O)C(O)C1O)[C@H](O)[C@H](O)CCCCCCCCCCCCCC (stereo partly drawn) [α-GalCer] |  |  |  | immunostimulatory activity (NKT cells [1]): induces the strongest activity
2 | CCCCCCC#CCCCCCC[C@@H](O)[C@@H](O)[C@H](CO[C@H]1O[C@H](CO)[C@H](O)[C@H](O)[C@H]1O)OC(=O)CCCCCCCCCCCCCCCCCCCCCCCCC [Compound 23, (2S,3R,4R)-3,4-dihydroxy-2-hexacosanoyloxy-11-octadecyn-1-yl α-D-galactopyranoside] | lower | equivalent or higher |  | 
3 | CCCCCCCCCCCCCCCCCCCCCCCCCC(=O)O[C@@H](CO[C@H]1O[C@H](COC)[C@H](O)[C@H](O)[C@H]1O)[C@H](O)[C@H](O)CCCCCCCCCCCCCC [Compound 33, (2S,3R,4R)-3,4-dihydroxy-2-hexacosanoyloxyoctadecyl 6-O-methyl-α-D-galactopyranoside] | lower | equivalent or higher |  | 
4 | CCCCCCCCCCCCCCCCCCCCCCCCCC(=O)N[C@@H](CC[C@H]1OC(CO)[C@H](O)C(O)C1O)[C@H](O)[C@H](O)CCCCCCCCCCCCCC (stereo partly drawn) [α-C-GalCer] |  |  | very weak activity | 
5 | CCCCCCCCCCCCCCCCCCCCCCCCCC(=O)N[C@@H](CO[C@H]1CC(CO)[C@H](O)C(O)C1O)[C@H](O)[C@H](O)CCCCCCCCCCCCCC (stereo partly shown) |  |  | strong activity | IFN-γ production by NKT cells (NKT cells [2]): strongly induces
6 | CCCCCCCCCCCCCCCCCCCCCCCCCC(=O)O[C@@H](CO[C@H]1O[C@H](CO)[C@H](O)[C@H](O)[C@H]1O)[C@H](O)[C@H](O)CCCCCCCCCCCCCC [Compound 24, (2S,3R,4R)-3,4-dihydroxy-2-hexacosanoyloxyoctadecyl α-D-galactopyranoside] | lower | equivalent or higher |  | 
